Test results published in PubChem BioAssay AID1259407 (Chemical Carcinogenesis Research Information System (CCRIS), 2018).
Calls of active or inactive are those of the source. How the calls were made is not given here.

Test system: CCRIS mutagenicity, Ames/micronucleus/aberration tests
Experiment: CCRIS mutagenicity studies
Details: Test System: AMES SALMONELLA TYPHIMURIUM, Metabolic Activation: NONE, Method: STANDARD PLATE

Measured: mutagenic call

O=[N+]([O-])c1cccc2c1c([N+](=O)[O-])cc1ccccc12
active: Strain/Indicator: TA98(1,8-DNP6) active; positive | Strain/Indicator: TA98(NR) active; positive | Strain/Indicator: TA98 active; positive | Strain/Indicator: TA100 active; positive | Strain/Indicator: YG1021 active; positive | Strain/Indicator: YG1024 active; positive | Strain/Indicator: YG1026 active; positive | Strain/Indicator: YG1029 active; positive
